# In publication doi:10.1101/2023.10.14.562361v1 (biorxiv, 2023):
# Experiments:
# [1] = biological target: T1, Smurf1 HECT (Homo sapiens, UniProt Q9HCE7); assay: UbFluor fluorescence polarization assay; assay type: biochemical
# [2] = biological target: T1, Smurf1 HECT; assay: biolayer interferometry; assay type: binding
# [3] = system: Smurf1C2; assay: UbFluor fluorescence polarization assay; assay type: biochemical, Homo sapiens; settings: 0.5 µM enzyme, 2 µM UbFluor, pH 7.4, 0.01% Tween20
# [4] = biological target: Smurf1 FL (Homo sapiens, UniProt Q9HCE7); assay: UbFluor fluorescence polarization assay; assay type: biochemical
# Smurf1 FL, sequence (Q9HCE7 whole entry): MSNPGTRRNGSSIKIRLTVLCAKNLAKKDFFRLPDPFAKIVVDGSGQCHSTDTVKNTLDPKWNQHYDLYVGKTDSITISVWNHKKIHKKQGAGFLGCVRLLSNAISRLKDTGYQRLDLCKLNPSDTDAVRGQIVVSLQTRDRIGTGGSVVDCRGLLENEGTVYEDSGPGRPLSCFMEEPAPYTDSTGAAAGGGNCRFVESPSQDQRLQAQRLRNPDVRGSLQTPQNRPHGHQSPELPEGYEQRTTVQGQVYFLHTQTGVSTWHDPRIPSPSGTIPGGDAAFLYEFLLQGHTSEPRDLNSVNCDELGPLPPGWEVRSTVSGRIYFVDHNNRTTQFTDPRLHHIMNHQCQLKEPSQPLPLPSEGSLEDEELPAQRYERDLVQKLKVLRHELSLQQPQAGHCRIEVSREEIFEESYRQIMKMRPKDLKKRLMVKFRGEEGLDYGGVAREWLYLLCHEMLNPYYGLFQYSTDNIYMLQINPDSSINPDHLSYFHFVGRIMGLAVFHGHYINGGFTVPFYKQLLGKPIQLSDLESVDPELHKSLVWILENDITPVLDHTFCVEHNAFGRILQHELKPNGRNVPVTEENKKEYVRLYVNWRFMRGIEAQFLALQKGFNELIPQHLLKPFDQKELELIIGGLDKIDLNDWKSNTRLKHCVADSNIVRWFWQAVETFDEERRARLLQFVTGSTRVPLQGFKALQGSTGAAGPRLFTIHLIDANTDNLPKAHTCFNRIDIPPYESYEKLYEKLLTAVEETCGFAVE
# T1 sequence (Q9HCE7 341-757): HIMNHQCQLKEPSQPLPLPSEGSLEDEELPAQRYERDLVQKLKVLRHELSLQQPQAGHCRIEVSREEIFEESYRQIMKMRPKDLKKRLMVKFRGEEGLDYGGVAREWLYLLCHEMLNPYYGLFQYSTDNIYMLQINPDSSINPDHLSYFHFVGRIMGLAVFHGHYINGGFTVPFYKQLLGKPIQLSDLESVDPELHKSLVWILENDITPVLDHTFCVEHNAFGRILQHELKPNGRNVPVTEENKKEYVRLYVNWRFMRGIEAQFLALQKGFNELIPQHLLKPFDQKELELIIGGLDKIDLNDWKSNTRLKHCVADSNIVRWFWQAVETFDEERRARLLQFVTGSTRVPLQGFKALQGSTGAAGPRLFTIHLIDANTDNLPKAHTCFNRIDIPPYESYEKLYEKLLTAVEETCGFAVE
SMILES,IC50 [1] [nM],Kd [2] [µM],IC50 [3] [nM],IC50 [4] [nM]
Cc1c(NC(=O)c2noc3c2CCSc2cc(OC(F)(F)F)ccc2-3)c(=O)n(C2CCCCC2)n1C [compound 1],450,25.8 ± 2.2,140,230
Cc1c(C(=O)Nc2c(C)n(C)n(C3CCCCC3)c2=O)nnn1-c1ccc(OC(F)(F)F)cc1Cl [compound 2],,54.5 ± 2,3100,
